In ChEMBL document CHEMBL1133284, “3-Phenyl-5-methyl-2H,5H-furan-2-ones: tuning antifungal activity by varying substituents on the phenyl ring” (2000):
Values after ≈ are worked out from the molar mass of the structure shown.

What was measured:
Lichtheimia corymbifera [1] = test: In vitro minimum inhibitory concentration of compound was determined against Absidia corymbifera after 24 hr r; type: functional
Lichtheimia corymbifera [2] = test: In vitro minimum inhibitory concentration of compound was determined against Absidia corymbifera after 48 hr; type: functional
Aspergillus fumigatus [3] = test: In vitro minimum inhibitory concentration of compound was determined against Aspergillus fumigatus after 24 hr r; type: functional
Nakaseomyces glabratus [4] = test: In vitro minimum inhibitory concentration of compound was determined against Candida glabrata after 24 hr r; type: functional
Nakaseomyces glabratus [5] = test: In vitro minimum inhibitory concentration of compound was determined against Candida glabrata after 48 hr; type: functional
Candida albicans [6] = test: In vitro minimum inhibitory concentration of compound was determined against Candida albicans after 24 hr r; type: functional
Candida albicans [7] = test: In vitro minimum inhibitory concentration of compound was determined against Candida albicans after 48 hr; type: functional
Candida tropicalis [8] = test: In vitro minimum inhibitory concentration of compound was determined against Candida tropicalis after 24 hr r; type: functional
Candida tropicalis [9] = test: In vitro minimum inhibitory concentration of compound was determined against Candida tropicalis after 48 hr; type: functional
Pichia kudriavzevii [10] = test: In vitro minimum inhibitory concentration of compound was determined against Candida krusei after 24 hr r; type: functional
Pichia kudriavzevii [11] = test: In vitro minimum inhibitory concentration of compound was determined against Candida krusei after 48 hr; type: functional
Trichosporon beigelii [12] = test: In vitro minimum inhibitory concentration of compound was determined against Trichosporon beigelii after 48 hr; type: functional
Trichophyton benhamiae [13] = test: In vitro minimum inhibitory concentration of compound was determined against Trichophyton mentagrophytes after 120 hr; type: functional, Arthroderma benhamiae
Trichophyton benhamiae [14] = test: In vitro minimum inhibitory concentration of compound was determined against Trichophyton mentagrophytes after 72 hr; type: functional, Arthroderma benhamiae
Trichosporon beigelii [15] = test: In vitro minimum inhibitory concentration of compound was determined against Trichosporon beigelii after 24 hr r; type: functional
Aspergillus fumigatus [16] = test: In vitro minimum inhibitory concentration of compound was determined against Aspergillus fumigatus after 48 hr; type: functional

SMILES | MIC (Lichtheimia corymbifera [1]) [µM] | MIC (Lichtheimia corymbifera [2]) [µM] | MIC (Aspergillus fumigatus [3]) [µM] | MIC (Nakaseomyces glabratus [4]) [µM] | MIC (Nakaseomyces glabratus [5]) [µM] | MIC (Candida albicans [6]) [µM] | MIC (Candida albicans [7]) [µM] | MIC (Candida tropicalis [8]) [µM] | MIC (Candida tropicalis [9]) [µM] | MIC (Pichia kudriavzevii [10]) [µM] | MIC (Pichia kudriavzevii [11]) [µM] | MIC (Trichosporon beigelii [12]) [µM] | MIC (Trichophyton benhamiae [13]) [µM] | MIC (Trichophyton benhamiae [14]) [µM] | MIC (Trichosporon beigelii [15]) [µM] | MIC (Aspergillus fumigatus [16]) [µM]
Cc1ccc(C2=CC(C)OC2=O)cc1 (configuration not stated) | 1000 (≈ 188 µg/mL) | > 1000 | 1000 (≈ 188 µg/mL) | > 1000 | > 1000 | 1000 (≈ 188 µg/mL) | > 1000 | > 1000 | > 1000 | > 1000 | > 1000 | > 1000 | 500 (≈ 94.1 µg/mL) | 250 (≈ 47.1 µg/mL) | > 1000 | > 1000
COc1ccc(C2=CC(C)OC2=O)cc1 (configuration not stated) | 1000 (≈ 204 µg/mL) | > 1000 | 1000 (≈ 204 µg/mL) | > 1000 | > 1000 | 1000 (≈ 204 µg/mL) | 1000 (≈ 204 µg/mL) | 1000 (≈ 204 µg/mL) | > 1000 | > 1000 | > 1000 | > 1000 | 250 (≈ 51.1 µg/mL) | 125 (≈ 25.5 µg/mL) | 1000 (≈ 204 µg/mL) | 1000 (≈ 204 µg/mL)
CC1C=C(c2ccc([N+](=O)[O-])cc2)C(=O)O1 (configuration not stated) | 250 (≈ 54.8 µg/mL) | 250 (≈ 54.8 µg/mL) | 250 (≈ 54.8 µg/mL) | 500 (≈ 110 µg/mL) | 1000 (≈ 219 µg/mL) | 250 (≈ 54.8 µg/mL) | 500 (≈ 110 µg/mL) | 500 (≈ 110 µg/mL) | 500 (≈ 110 µg/mL) | 500 (≈ 110 µg/mL) | 500 (≈ 110 µg/mL) | 1000 (≈ 219 µg/mL) | 125 (≈ 27.4 µg/mL) | 62.5 (≈ 13.7 µg/mL) | 500 (≈ 110 µg/mL) | 1000 (≈ 219 µg/mL)
CC1C=C(c2ccc(Cl)cc2)C(=O)O1 (configuration not stated) | 125 (≈ 26.1 µg/mL) | 250 (≈ 52.2 µg/mL) | 62.5 (≈ 13 µg/mL) | 500 (≈ 104 µg/mL) | 1000 (≈ 209 µg/mL) | 31.2 (≈ 6.52 µg/mL) | 125 (≈ 26.1 µg/mL) | 250 (≈ 52.2 µg/mL) | 500 (≈ 104 µg/mL) | 250 (≈ 52.2 µg/mL) | 500 (≈ 104 µg/mL) | 250 (≈ 52.2 µg/mL) | 62.5 (≈ 13 µg/mL) | 31.2 (≈ 6.52 µg/mL) | 125 (≈ 26.1 µg/mL) | 125 (≈ 26.1 µg/mL)
CC1C=C(c2cccc(Br)c2)C(=O)O1 (configuration not stated) | 62.5 (≈ 15.8 µg/mL) | 125 (≈ 31.6 µg/mL) | 62.5 (≈ 15.8 µg/mL) | 250 (≈ 63.3 µg/mL) | 500 (≈ 127 µg/mL) | 31.2 (≈ 7.91 µg/mL) | 125 (≈ 31.6 µg/mL) | 250 (≈ 63.3 µg/mL) | 500 (≈ 127 µg/mL) | 250 (≈ 63.3 µg/mL) | 500 (≈ 127 µg/mL) | 250 (≈ 63.3 µg/mL) | 125 (≈ 31.6 µg/mL) | 62.5 (≈ 15.8 µg/mL) | 62.5 (≈ 15.8 µg/mL) | 250 (≈ 63.3 µg/mL)
CC1C=C(c2ccc(F)cc2)C(=O)O1 (configuration not stated) | 62.5 (≈ 12 µg/mL) | 62.5 (≈ 12 µg/mL) | 125 (≈ 24 µg/mL) | 500 (≈ 96.1 µg/mL) | 500 (≈ 96.1 µg/mL) | 62.5 (≈ 12 µg/mL) | 250 (≈ 48 µg/mL) | 250 (≈ 48 µg/mL) | 500 (≈ 96.1 µg/mL) | 500 (≈ 96.1 µg/mL) | 500 (≈ 96.1 µg/mL) | 250 (≈ 48 µg/mL) | 250 (≈ 48 µg/mL) | 250 (≈ 48 µg/mL) | 125 (≈ 24 µg/mL) | 125 (≈ 24 µg/mL)
CC[C@@H]1C=C(c2ccc(C)cc2)C(=O)O1 | 250 (≈ 50.6 µg/mL) | 250 (≈ 50.6 µg/mL) | 250 (≈ 50.6 µg/mL) | 500 (≈ 101 µg/mL) | > 500 | 250 (≈ 50.6 µg/mL) | 500 (≈ 101 µg/mL) | 500 (≈ 101 µg/mL) | > 500 | 500 (≈ 101 µg/mL) | > 500 | 500 (≈ 101 µg/mL) | 250 (≈ 50.6 µg/mL) | 125 (≈ 25.3 µg/mL) | 250 (≈ 50.6 µg/mL) | 500 (≈ 101 µg/mL)
CC1C=C(c2cccc(F)c2)C(=O)O1 (configuration not stated) | 500 (≈ 96.1 µg/mL) | 500 (≈ 96.1 µg/mL) | 250 (≈ 48 µg/mL) | > 1000 | > 1000 | 62.5 (≈ 12 µg/mL) | 250 (≈ 48 µg/mL) | 500 (≈ 96.1 µg/mL) | 1000 (≈ 192 µg/mL) | 500 (≈ 96.1 µg/mL) | 1000 (≈ 192 µg/mL) | 500 (≈ 96.1 µg/mL) | 125 (≈ 24 µg/mL) | 125 (≈ 24 µg/mL) | 250 (≈ 48 µg/mL) | 500 (≈ 96.1 µg/mL)
CC1C=C(c2ccc(Br)cc2)C(=O)O1 (configuration not stated) | 125 (≈ 31.6 µg/mL) | 125 (≈ 31.6 µg/mL) | 62.5 (≈ 15.8 µg/mL) | 500 (≈ 127 µg/mL) | 1000 (≈ 253 µg/mL) | 7.81 (≈ 1.98 µg/mL) | 62.5 (≈ 15.8 µg/mL) | 250 (≈ 63.3 µg/mL) | 500 (≈ 127 µg/mL) | 250 (≈ 63.3 µg/mL) | 250 (≈ 63.3 µg/mL) | 250 (≈ 63.3 µg/mL) | 62.5 (≈ 15.8 µg/mL) | 31.2 (≈ 7.91 µg/mL) | 125 (≈ 31.6 µg/mL) | 250 (≈ 63.3 µg/mL)
CC1C=C(c2ccc(Cl)c(Cl)c2)C(=O)O1 (configuration not stated) | 7.81 (≈ 1.9 µg/mL) | 31.2 (≈ 7.6 µg/mL) | 7.81 (≈ 1.9 µg/mL) | > 500 | > 500 | 31.2 (≈ 7.6 µg/mL) | 500 (≈ 122 µg/mL) | > 500 | > 500 | > 500 | > 500 | > 500 | 62.5 (≈ 15.2 µg/mL) | 31.2 (≈ 7.6 µg/mL) | 31.2 (≈ 7.6 µg/mL) | 62.5 (≈ 15.2 µg/mL)
CC1C=C(c2ccccc2)C(=O)O1 (configuration not stated) | 1000 (≈ 174 µg/mL) | > 1000 | 1000 (≈ 174 µg/mL) | > 1000 | > 1000 | 1000 (≈ 174 µg/mL) | > 1000 | > 1000 | > 1000 | > 1000 | > 1000 | > 1000 | 1000 (≈ 174 µg/mL) | 500 (≈ 87.1 µg/mL) | > 1000 | > 1000
CC(=O)N1CCN(c2ccc(OC[C@H]3CO[C@](Cn4ccnc4)(c4ccc(Cl)cc4Cl)O3)cc2)CC1 [KETOCONAZOLE] | 31.2 (≈ 16.6 µg/mL) | 31.2 (≈ 16.6 µg/mL) | 15.6 (≈ 8.31 µg/mL) | 0.24 (≈ 0.128 µg/mL) | 0.49 (≈ 0.26 µg/mL) | 0.12 (≈ 0.0638 µg/mL) | 0.12 (≈ 0.0638 µg/mL) | 15.6 (≈ 8.31 µg/mL) | 15.6 (≈ 8.31 µg/mL) | 3.91 (≈ 2.08 µg/mL) | 3.91 (≈ 2.08 µg/mL) | 0.12 (≈ 0.0638 µg/mL) | 1.95 (≈ 1.04 µg/mL) | 0.98 (≈ 0.521 µg/mL) | 0.12 (≈ 0.0638 µg/mL) | 15.6 (≈ 8.31 µg/mL)
